Test results: US12612394B2, “Herbicidal malonamides” (BASF SE, priority 2020, dated 2026)

Experiments:
[1] = test system: ECHCG; experiment: greenhouse experiment, pre-emergence treatment; format: in vivo, Echinocloa crus-galli; settings: application rate 1,000 kg/ha, pre-emergence method
Text: (§1) The culture containers used were plastic flowerpots containing loamy sand with approximately 3.0% of humus as the substrate. The seeds of the test plants were sown separately for each species.
(§2) For the pre-emergence treatment, the active ingredients, which had been suspended or emulsified in water, were applied directly after sowing by means of finely distributing nozzles. The containers were irrigated gently to promote germination and growth and subsequently covered with transparent plastic hoods until the test plants had rooted. This cover caused uniform germination of the test plants, unless this had been impaired by the active ingredients. For the post-emergence treatment, the test plants were first grown to a height of 3 to 15 cm, depending on the plant habit, and only then treated with the active ingredients which had been suspended or emulsified in water. For this purpose, the test plants were either sown directly and grown in the same containers, or they were first grown separately as seedlings and transplanted into the test containers a few days prior to treatment.
(§3) Depending on the species, the test plants were kept at 10-25° C. or 20-35° C., respectively. The test period extended over 2 to 4 weeks. During this time, the test plants were tended, and their response to the individual treatments was evaluated.
(§4) Evaluation was carried out using a scale from 0 to 100. […]

[2] = test system: AMARE; experiment: greenhouse experiment, pre-emergence treatment; format: in vivo, Amaranthus retroflexus; settings: application rate 1,000 kg/ha, pre-emergence method
Text: as §1, §2, §3, §4

[3] = test system: ABUTH; experiment: greenhouse experiment, pre-emergence treatment; format: in vivo, Abutilon theophrasti; settings: application rate 0.125 kg/ha, pre-emergence method
Text: as §1, §2, §3, §4

[4] = test system: APESV; experiment: greenhouse experiment, post-emergence treatment; format: in vivo, Apera spica-venti; settings: application rate 0.500 kg/ha, post-emergence method
Text: as §1, §2, §3, §4

[5] = test system: ALOMY; experiment: greenhouse experiment, pre-emergence treatment; format: in vivo, Alopercurus myosuroides; settings: application rate 0.125 kg/ha, pre-emergence method
Text: as §1, §2, §3, §4

[6] = test system: SETFA; experiment: greenhouse experiment, pre-emergence treatment; format: in vivo, Setaria faberi; settings: pre-emergence method
Text: as §1, §2, §3, §4

[7] = test system: AMARE; experiment: greenhouse experiment, post-emergence treatment; format: in vivo, Amaranthus retroflexus; settings: application rate 0.125 kg/ha, post-emergence method
Text: as §1, §2, §3, §4

[8] = test system: SETVI; experiment: greenhouse experiment, post-emergence treatment; format: in vivo, Setaria viridis; settings: application rate 0.250 kg/ha, post-emergence method
Text: as §1, §2, §3, §4

COC(=O)[C@H]1C[C@@H](NC(=O)C(OC)C(=O)Nc2cc(Cl)cc(Cl)c2)CO1 (relative stereo) [I.40, methyl cis-4-[[3-(3,5-dichloroanilino)-2-methoxy-3-oxo-propanoyl]amino]tetrahydrofuran-2-carboxylate]
herbicidal activity against ECHCG [1]: very good (a very good herbicidal activity is given at values of 90 to 100)

CNC(=O)[C@@H]1C[C@H](NC(=O)C(OC)C(=O)Nc2cc(F)cc(F)c2)CO1 (relative stereo) [I.100]
herbicidal activity against AMARE [2]: very good (a very good herbicidal activity is given at values of 90 to 100)

COC(C(=O)Nc1cc(Cl)cc(Cl)c1)C(=O)N[C@H]1C=C[C@@H](C(=O)OC2CC2)C1 (relative stereo) [I.185]
herbicidal activity against ABUTH [3]: very good (a very good herbicidal activity is given at values of 90 to 100)

COC(C(=O)Nc1cc(Cl)cc(Cl)c1)C(=O)NC1CO[C@@H](C(=O)O)C1 (stereo in doubt) [I.60, cis-4-[[3-(3,5-dichloroanilino)-2-methoxy-3-oxo-propanoyl]amino]tetrahydrofuran-2-carboxylate]
herbicidal activity against ECHCG [1]: good (A good herbicidal activity is given at values of 70 to 90)

COC(=O)CC(NC(=O)C(OC)C(=O)Nc1cc(Cl)cc(Cl)c1)C(F)(F)F (stereo not shown) [I.42]
herbicidal activity against APESV [4]: good (A good herbicidal activity is given at values of 70 to 90)

COC(C(=O)Nc1cc(Cl)cc(Cl)c1)C(=O)N[C@H]1C=C[C@@H](C(=O)OC(C)C)C1 (stereo partly shown) [I.159]
herbicidal activity against ALOMY [5]: very good (a very good herbicidal activity is given at values of 90 to 100) | herbicidal activity against SETFA ([6]; application rate 0.125 kg/ha): very good (a very good herbicidal activity is given at values of 90 to 100)

COC(=O)C1C=CC(NC(=O)C(OC(F)F)C(=O)Nc2cc(Cl)cc(Cl)c2)C1 (stereo not shown) [I.173]
herbicidal activity against SETFA ([6]; application rate 0.250 kg/ha): good (A good herbicidal activity is given at values of 70 to 90)

COC(=O)[C@@H]1C=C[C@H](NC(=O)C(OC)C(=O)Nc2cccc(OC(F)(F)C(F)F)c2)C1 (stereo partly shown) [I.192]
herbicidal activity against AMARE [7]: good (A good herbicidal activity is given at values of 70 to 90)

COC(=O)[C@@H]1C=C[C@H](NC(=O)C(OC)C(=O)Nc2cc(OC)c(C)c(OC)c2)C1 (stereo partly shown) [I.197]
herbicidal activity against SETVI [8]: good (A good herbicidal activity is given at values of 70 to 90)
